The values that follow come from PMC11217349, “Development of Nurr1 agonists from amodiaquine by scaffold hopping and fragment growing” (Communications Chemistry, 2024).

Where “and” joins values, the source holds several entries; their conditions need not be identical. Equal entries are not always repeated. Entries after “also recorded” stand apart in the source; their conditions may differ.

For data set [1], the system named is HBEC-5i human brain endothelial cells. The data set can be described thus: In vitro blood-brain-barrier model. Format: in vitro ADME. The note with it: HBEC-5i trans-well, 10 µM, 60 min. The protocol: Permeation of test compounds through a human brain endothelial cell barrier was evaluated using the Corning Costar 3470 Transwell Plate system (0.4 μm pore diameter with 6.5 mm inserts) and HBEC-5i cells (ATCC, CRL-3245). Filter inserts were coated one day before seeding with 50 μL 0.01% rat-tail collagen type I ([…], Sigma-Aldrich) in PBS. 60,000 HBEC-5i cells in 100 μL HBEC-5i-Medium (DMEM/F12 with 10% FCS and 40 μg/mL ECGS) were seeded after aspiration of the coating-supernatant in each insert with 600 μL HBEC-5i-Medium in each receiver well. After 24 h incubation at 37 °C with 5% CO2, the medium was exchanged to 600 μL T98G cell supernatant in receiver wells and 100 μL fresh HBEC-5i-Medium in inserts. The medium exchange was repeated every second day. On day 7 after seeding, the medium in the receiver wells was replaced by 600 μL Hank's balanced salt solution (HBSS) containing 10 mM HEPES and 0.1% DMSO and 100 μL test compound mixtures (antipyrine and test compound; each at 10 μM) in HBSS containing 10 mM HEPES and 0.1% DMSO were added to inserts. After 60 min incubation, 100 μL samples were taken from the receiver wells and diluted in 400 μL (75%/25% A/B; A=Formic acid 0.1% in water; B = Acetonitrile). Test compound concentrations in the samples were determined by LC-MS/MS on an API-3200-QTrap (Sciex) equipped with an Agilent Technologies 1100 series setup including a binary pump […]), and a Shimadzu […] autosampler under the control of Analyst 1.6 (Sciex). […] B) for 6 min going to (50%:50%) after 8 min. 5 μL of aspirated supernatant diluted in mobile phase starting conditions was loaded onto the column, separated at a flow rate of 400 μL/min, and quantified per Area of MRM (multiple reaction monitoring).

For a further data set, the target named is T1, PPARδ (Homo sapiens, UniProt Q03181).
T1 construct: chimeric receptors composed of the Gal4-DBD and the hinge region and LBD; expressed in transfected cells; host or cells: HEK293T
T1 sequence (Q03181 211-439 limits assumed): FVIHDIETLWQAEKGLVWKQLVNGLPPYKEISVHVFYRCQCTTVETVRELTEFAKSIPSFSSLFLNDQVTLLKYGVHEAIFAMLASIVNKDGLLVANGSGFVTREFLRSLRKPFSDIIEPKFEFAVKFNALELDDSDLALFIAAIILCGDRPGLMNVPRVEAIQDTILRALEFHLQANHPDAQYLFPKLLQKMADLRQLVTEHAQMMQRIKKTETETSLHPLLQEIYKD
The data set can be described thus: Gal4-hybrid selectivity assay PPARδ. Type of data set: cell-based. The note with it: 3 µM; reference agonist = 100%. The protocol:
(§1) Nurr1 modulation was determined in a Gal4 hybrid reporter gene assay in HEK293T cells (German Collection of Microorganisms and Cell Culture GmbH, DSMZ) using pFR-Luc (Stratagene, La Jolla, CA, USA; reporter), pRL-SV40 (Promega, Madison, WI, USA; internal control) and pFA-CMV-hNurr1-LBD[14], coding for the hinge region and ligand binding domain of the canonical isoform of human Nurr1. […] After 24 h, the medium was changed to Opti-MEM without supplements, and cells were transiently transfected using Lipofectamine LTX reagent (Invitrogen, Carlsbad, CA, USA) according to the manufacturer’s protocol. Five hours after transfection, cells were incubated with the test compounds in Opti-MEM supplemented with penicillin (100 U/mL), streptomycin (100 μg/mL), and 0.1% DMSO for 16 h before luciferase activity was measured using the Dual-Glo Luciferase Assay System (Promega) according to the manufacturer’s protocol on a Tecan Spark luminometer (Tecan Deutschland GmbH, Crailsheim, Germany). Firefly luminescence was divided by Renilla luminescence and multiplied by 1000 resulting in relative light units (RLU) to normalize for transfection efficiency and cell growth. Fold activation was obtained by dividing the mean RLU of the test compound by the mean RLU of the untreated control. All samples were tested in at least three biologically independent experiments in duplicates. […]

The next data set addresses T2, LXRα (Homo sapiens, UniProt Q13133).
T2 construct: chimeric receptors composed of the Gal4-DBD and the hinge region and LBD; expressed in transfected cells; host or cells: HEK293T
Briefly: Gal4-hybrid selectivity assay LXRα. Type of data set: cell-based. The note with it: 3 µM; reference agonist = 100%. Here is the method: as §1

The target of a further data set is T3, FXR (Homo sapiens, UniProt Q96RI1).
T3 construct: chimeric receptors composed of the Gal4-DBD and the hinge region and LBD; expressed in transfected cells; host or cells: HEK293T
T3 sequence (Q96RI1 262-486 limits assumed): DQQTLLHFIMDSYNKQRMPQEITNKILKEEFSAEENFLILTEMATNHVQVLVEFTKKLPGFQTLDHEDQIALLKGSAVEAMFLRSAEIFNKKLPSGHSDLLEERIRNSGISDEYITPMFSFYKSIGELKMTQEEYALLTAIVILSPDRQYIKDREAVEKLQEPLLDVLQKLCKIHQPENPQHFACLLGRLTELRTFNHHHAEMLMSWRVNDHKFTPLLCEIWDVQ
The data set can be described thus: Gal4-hybrid selectivity assay FXR. Format: cell-based. The note with it: 3 µM; reference agonist = 100%. Here is the method:
as §1

The next data set has as its target T4, RARα (Homo sapiens, UniProt P10276).
T4 construct: chimeric receptors composed of the Gal4-DBD and the hinge region and LBD; expressed in transfected cells; host or cells: HEK293T
Briefly: Gal4-hybrid selectivity assay RARα. Type of data set: cell-based. The note with it: 3 µM; reference agonist = 100%. The protocol: as §1

The test system of the next data set is N27 rat neurons. Briefly: WST-8 cytotoxicity assay, N27. Format: cell-based. Here is the method:
Each sample was prepared in four biologically independent repeats. After incubation for 24 h, the medium was refreshed and 10% water-soluble tetrazolinum salt (Cell Counting Kit-8, MedChemExpress) was added to assess metabolic activity. After 4 h, absorbance was measured at 450 nm using a Tecan Spark Cyto instrument (Tecan).

Data set [2] can be described thus: Parallel artificial membrane permeability assay (PAMPA). Format: in vitro ADME. The note with it: 500 µM donor, pH 7.4, 18 h. The protocol:
Passive lipid membrane diffusion of test compounds was determined using Merck Millipore MultiScreen Filter Plates (0.45 μm pore diameter, hydrophobic PVDF). The filter inserts were coated with 1% L-α-phosphatidylcholine (Fluka Analytical) in n-dodecan. The test compounds were then added to the donor compartment at a final concentration of 500 µM in a phosphate buffer pH 7.4 containing 5% DMSO with a total volume of 150 µL. The acceptor compartment was filled with 300 µL PBS containing 5% DMSO. Additionally, three equilibrium samples were prepared by directly adding the donor solution to the acceptor compartment for the calculation of log Pe values. The filter plates were incubated for 18 h before the test compound concentrations in the acceptor compartments and in the equilibrium, samples were determined by UV absorbance at 320 nm (34), 360 nm (36), 310 nm (41), or 315 nm (42) with external calibration in a 96 well quartz plate on a SpectraMax M2e microplate reader (Molecular Devices). logPe values were calculated according to the formula published by Sugano and colleagues.

The target of the next data set is T5, RXRα (Homo sapiens, UniProt P19793).
T5 construct: chimeric receptors composed of the Gal4-DBD and the hinge region and LBD; expressed in transfected cells; host or cells: HEK293T
T5 sequence (P19793 227-458 limits assumed): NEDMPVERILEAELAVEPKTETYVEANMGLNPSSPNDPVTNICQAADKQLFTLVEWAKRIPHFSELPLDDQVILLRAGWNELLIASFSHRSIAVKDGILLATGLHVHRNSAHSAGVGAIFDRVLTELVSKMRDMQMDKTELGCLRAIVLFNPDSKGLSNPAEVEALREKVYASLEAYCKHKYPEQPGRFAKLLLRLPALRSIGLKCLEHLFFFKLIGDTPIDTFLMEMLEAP
Briefly: Gal4-hybrid selectivity assay RXRα. Type of data set: cell-based. The note with it: 3 µM; reference agonist = 100%. Here is the method: as §1

A further data set concerns the target T6, PPARγ (Homo sapiens, UniProt P37231).
T6 construct: chimeric receptors composed of the Gal4-DBD and the hinge region and LBD; expressed in transfected cells; host or cells: HEK293T
Briefly: Gal4-hybrid selectivity assay PPARγ. The note with it: 3 µM; reference agonist = 100%. Type of data set: cell-based. The protocol: as §1

The target in another data set is T7, THRα (Homo sapiens, UniProt P10827).
T7 construct: chimeric receptors composed of the Gal4-DBD and the hinge region and LBD; expressed in transfected cells; host or cells: HEK293T
T7 sequence (P10827 128-410 isoform P10827-2 limits assumed): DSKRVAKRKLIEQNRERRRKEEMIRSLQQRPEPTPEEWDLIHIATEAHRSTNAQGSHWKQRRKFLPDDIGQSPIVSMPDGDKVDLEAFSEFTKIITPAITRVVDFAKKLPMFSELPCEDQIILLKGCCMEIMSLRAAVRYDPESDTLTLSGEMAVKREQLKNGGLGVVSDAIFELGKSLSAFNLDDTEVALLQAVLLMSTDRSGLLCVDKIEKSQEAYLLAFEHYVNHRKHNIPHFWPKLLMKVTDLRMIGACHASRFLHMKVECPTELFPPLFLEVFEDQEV
Briefly: Gal4-hybrid selectivity assay THRα. Format: cell-based. The note with it: 3 µM; reference agonist = 100%. Here is the method:
as §1

For another data set, the target named is T8, VDR (Homo sapiens, UniProt P11473).
T8 construct: chimeric receptors composed of the Gal4-DBD and the hinge region and LBD; expressed in transfected cells; host or cells: HEK293T
T8 sequence (P11473 127-423 limits assumed): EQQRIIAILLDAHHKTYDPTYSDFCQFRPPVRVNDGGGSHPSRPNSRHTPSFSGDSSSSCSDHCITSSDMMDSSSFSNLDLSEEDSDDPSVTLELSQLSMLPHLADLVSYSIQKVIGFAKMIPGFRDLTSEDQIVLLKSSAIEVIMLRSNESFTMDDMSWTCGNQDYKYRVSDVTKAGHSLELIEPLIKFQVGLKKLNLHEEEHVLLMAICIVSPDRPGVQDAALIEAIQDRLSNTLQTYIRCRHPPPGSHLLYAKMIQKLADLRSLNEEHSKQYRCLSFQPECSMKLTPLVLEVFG
Briefly: Gal4-hybrid selectivity assay VDR. Type of data set: cell-based. The note with it: 3 µM; reference agonist = 100%.

T2 sequence (Q13133 209-447 limits assumed): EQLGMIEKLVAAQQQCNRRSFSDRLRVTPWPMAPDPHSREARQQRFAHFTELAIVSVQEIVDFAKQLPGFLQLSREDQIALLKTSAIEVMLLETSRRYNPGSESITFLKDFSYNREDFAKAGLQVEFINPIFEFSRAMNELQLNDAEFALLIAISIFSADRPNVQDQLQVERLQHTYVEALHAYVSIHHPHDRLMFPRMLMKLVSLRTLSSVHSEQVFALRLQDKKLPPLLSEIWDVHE
T6 sequence (P37231 238-503 limits assumed): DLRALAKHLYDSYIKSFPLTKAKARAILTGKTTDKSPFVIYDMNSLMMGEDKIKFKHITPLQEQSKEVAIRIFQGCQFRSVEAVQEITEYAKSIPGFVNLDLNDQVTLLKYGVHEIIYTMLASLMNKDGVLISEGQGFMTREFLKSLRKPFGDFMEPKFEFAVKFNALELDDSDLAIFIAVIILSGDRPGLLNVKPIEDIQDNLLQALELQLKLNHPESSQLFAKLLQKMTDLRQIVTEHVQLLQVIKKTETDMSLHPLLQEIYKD
T4 sequence (P10276 183-417 limits assumed): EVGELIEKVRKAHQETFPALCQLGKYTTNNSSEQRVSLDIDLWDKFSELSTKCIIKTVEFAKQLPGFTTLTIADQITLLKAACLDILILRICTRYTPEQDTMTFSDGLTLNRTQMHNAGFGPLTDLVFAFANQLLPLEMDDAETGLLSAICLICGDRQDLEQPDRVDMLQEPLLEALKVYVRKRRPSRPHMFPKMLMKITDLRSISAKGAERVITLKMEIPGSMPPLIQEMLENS

As to `Cc1nc2c(Cl)cccn2c1NC(=O)c1ccc(-c2ccc(N(C)C)cc2)o1` [Compound 36, N-(8-Chloro-2-methylimidazo[1,2-a]pyridin-3-yl)-5-(4-(dimethylamino)phenyl)furan-2-carboxamide], the “logPe (BBB)” value in data set [1] was -4.64 and -4.729 and -4.725 and -4.687 and -4.681 and -4.749. Moreover, the “% rel. act. PPARδ” value on PPARδ is 4.502% and 5.181% and 2.926%. Further, the “% rel. act. LXRα” value at LXRα is 2.022% and 2.102% and 1.670%. In addition, at FXR, the “% rel. act. FXR” value is 0.311% and 0.333% and 0.363%. Besides, at RARα, the “% rel. act. RARα” value is 0.175% and 0.388% and 0.324%. Moreover, in the data set on N27 rat neurons (N27, 10 µM, WST-8, vs DMSO ctrl), the “rel. absorbance (450 nm)” value was 94% and 99% and 90% and 91%. The “toxicity (WST-8)” value in the data set on N27 rat neurons (N27 rat neurons, 24 h) was “no toxic effect; also recorded: non-toxic; also recorded: inactive (10 µM)”. Further, in data set [2], the “logPe (PAMPA)” value is -5.647 and -5.642 and -5.6601 and -5.6738. Moreover, at RXRα, the “% rel. act. RXRα” value was 0.348% and 0.360% and 0.470%. Further, on PPARγ, the “% rel. act. PPARγ” value is 10.373% and 9.960% and 8.281%. Also, the “% rel. act. THRα” value at THRα was 0.070% and 0.082% and 0.063%. Also, the “% rel. act. VDR” value at VDR is 4.840% and 6.730% and 2.930%.
